Reference: patent publication US4971967A, “Quinolinecarboxylic acid derivatives, antibacterial compositions and use” (Kanebo Ltd, priority 1989, dated 1990)
Converted amounts (≈) assume the structure as drawn. Where two headings read alike, the source gives them in different places.

Columns and labels:
[1] = system: Staphylococcus aureus FDA 209P JC-1; experiment: Antibacterial activity (MIC), S. aureus FDA 209P JC-1; format: cell-based; conditions: FDA209P, read-out: Minimum inhibitory concentration (MIC)
Procedure, shortened: (§1)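 MIC determined by the Japan Society of Chemotherapy standard method. Compounds dissolved at 5000 μg/ml (stock) in 0.1 N NaOH or sterile water, then diluted with sterile water to a 1000 μg/ml standard solution.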

[2] = system: Staphylococcus aureus IID 803; experiment: Antibacterial activity (MIC), S. aureus IID 803; format: cell-based
Procedure, shortened: as §1

[3] = system: Staphylococcus epidermidis IAM-1296; experiment: Antibacterial activity (MIC), S. epidermidis IAM-1296; format: cell-based; conditions: Staphylococcus epidermidis, IAM1296, Staphylococcus epidermidis IAM-1296, Gram +; read-out: Minimum inhibitory concentration (MIC)
Procedure, shortened: as §1

[4] = system: Streptococcus faecalis IID 682; experiment: Antibacterial activity (MIC), Streptococcus faecalis IID 682; format: cell-based; conditions: Enterococcus faecalis, IID682, Streptococcus faecalis IID 682, Gram +; read-out: Minimum inhibitory concentration (MIC)
Procedure, shortened: as §1

[5] = system: Micrococcus luteus ATCC 9341; experiment: Antibacterial activity (MIC), Micrococcus luteus ATCC 9341; format: cell-based; conditions: ATCC9341; Micrococcus luteus ATCC 9341, Gram +; read-out: Minimum inhibitory concentration (MIC)
Procedure, shortened: as §1

[6] = system: Klebsiella pneumoniae PCI-602; experiment: Antibacterial activity (MIC), Klebsiella pneumoniae PCI-602; format: cell-based; conditions: PCI602; Klebsiella pneumoniae PCI-602, Gram -; read-out: Minimum inhibitory concentration (MIC)
Procedure, shortened: as §1

Shigella sonnei EW-33 = experiment: Antibacterial activity (MIC), Shigella sonnei EW-33; format: cell-based; conditions: Shigella sonnei, EW33, Shigella sonnei EW-33, Gram -; read-out: Minimum inhibitory concentration (MIC)
Procedure, shortened: as §1

[7] = system: Serratia marcescens IAM 1184; experiment: Antibacterial activity (MIC), Serratia marcescens IAM 1184; format: cell-based; conditions: Serratia marcescens, IAM1184, Serratia marcescens IAM 1184, Gram -; read-out: Minimum inhibitory concentration (MIC)
Procedure, shortened: as §1

[8] = system: Pseudomonas aeruginosa IFO 3445; experiment: Antibacterial activity (MIC), P. aeruginosa IFO 3445; format: cell-based; conditions: Pseudomonas aeruginosa, IFO3445, Pseudomonas aeruginosa IFO 3445, Gram -; read-out: Minimum inhibitory concentration (MIC)
Procedure, shortened: as §1

[9] = system: Pseudomonas aeruginosa NCTC 10490; experiment: Antibacterial activity (MIC), P. aeruginosa NCTC 10490; format: cell-based; conditions: Pseudomonas aeruginosa, NCTC10490, Pseudomonas aeruginosa NCTC 10490, Gram -; read-out: Minimum inhibitory concentration (MIC)
Procedure, shortened: as §1

Proteus vulgaris OX-19 = experiment: Antibacterial activity (MIC), Proteus vulgaris OX-19; format: cell-based; conditions: OX19; Proteus vulgaris OX-19, Gram -; read-out: Minimum inhibitory concentration (MIC)
Procedure, shortened: as §1

[10] = system: Proteus mirabilis IFO 3849; experiment: Antibacterial activity (MIC), Proteus mirabilis IFO 3849; format: cell-based; conditions: IFO3849; Proteus mirabilis IFO 3849, Gram -; read-out: Minimum inhibitory concentration (MIC)
Procedure, shortened: as §1

Enterobacter cloacae 963 = experiment: Antibacterial activity (MIC), Enterobacter cloacae 963; format: cell-based; conditions: Enterobacter cloacae, 963, Enterobacter cloacae 963, Gram -; read-out: Minimum inhibitory concentration (MIC)
Procedure, shortened: as §1

[11] = system: Citrobacter freundii NIHJ 10018-68; experiment: Antibacterial activity (MIC), Citrobacter freundii NIHJ 10018-68; format: cell-based; conditions: Citrobacter freundii, NIHJ10018, Citrobacter freundii NIHJ 10018-68, Gram -; read-out: Minimum inhibitory concentration (MIC)
Procedure, shortened: as §1

[12] = system: clinically isolated methicillin resistant Staphylococcus aureus; experiment: MIC against clinically isolated methicillin resistant Staphylococcus aureus; format: cell-based; conditions: 54 strains; for MIC50: minimum concentration for inhibiting growth of the strains by 50%; for MIC90: minimum concentration for inhibiting growth of the strains by 90%
Experimental: The compounds (A) and (J) of the present invention and the known compound (X) were dissolved in 0.1 N aqueous sodium hydroxide, and the known compound (Y) in sterilized distilled water, to prepare a solution of 5000 μg/ml in concentration each. The above solutions were then diluted with sterilized distilled water to prepare a standard solution with a concentration of the test compound: 1000 μg/ml each. The test was carried out by a method appointed by Japan Society of Chemotherapy (ibidem) to measure minimum inhibitory concentration (MIC) against 54 strains of clinically isolated methicillin resistant Staphylococcus aureus, from which there were calculated a range of MIC (MICrange) of the test compound against these resistant strains, a minimum concentration for inhibiting the growth of the strains by 50% (MIC50) and a minimum concentration for inhibiting the growth of the strains by 90% (MIC90).

[13] = Acute toxicity (Experiment 5); conditions: mouse, in vivo, po, 2000 mg/kg
Experimental: (§2) The compound (A) or (J) of the present invention was suspended in 1% (w/v) aqueous gum arabic to prepare a suspension in concentration of 100 mg/ml. The suspension was orally administered to ddY male mice (5 weeks age, weighing 20 to 25 g, 5 mice in each group), which had been fasted for 18 hours, at a rate of 2000 mg/kg body weight of the compound (A) or (J).

[14] = Low toxicity (Experiments 5 and 6); format: in vivo, ddY male mice; conditions: result in words
Experimental: as §2
The compound (O) or (P) of the present invention was suspended in sterilized distilled water to prepare a suspension. The suspension was orally adminstered to ddY male mice (5 weeks age, weighing 20 to 25 g, 5 mice in each group), which had been fasted for 18 hours.

Work on `CCN1CCN(c2c(F)cc3c(=O)c(C(=O)O)c4scc5n4c3c2N(C)C5)CC1` [Compound (J), 9,1-(Methylimino)methano-7-fluoro-8-(4-ethyl-1-piperazinyl)-5-oxo-5H-thiazolo[3,2-a]quinoline-4-carboxylic acid] yielded an MIC ([1]; Staphylococcus aureus) of 0.05 µg/mL (≈ 0.12 µM), an MIC ([2]; Staphylococcus aureus, IID803, read-out: Minimum inhibitory concentration (MIC)) of 0.05 µg/mL (≈ 0.12 µM) and an MIC [3] of 0.1 µg/mL (≈ 0.24 µM). The MIC [4] was 0.1 µg/mL (≈ 0.24 µM), the MIC [5] was 0.39 µg/mL (≈ 0.936 µM) and the MIC [6] was 6 ng/mL (≈ 0.0144 µM). It also gave an MIC (Shigella sonnei EW-33) of 0.05 µg/mL (≈ 0.12 µM), an MIC [7] of 0.39 µg/mL (≈ 0.936 µM) and an MIC [8] of 0.78 µg/mL (≈ 1.87 µM). The MIC [9] was 0.39 µg/mL (≈ 0.936 µM), the MIC (Proteus vulgaris OX-19) was 0.025 µg/mL (≈ 0.06 µM) and the MIC [10] was 0.39 µg/mL (≈ 0.936 µM). It also gave an MIC (Enterobacter cloacae 963) of 0.1 µg/mL (≈ 0.24 µM), an MIC [11] of 0.39 µg/mL (≈ 0.936 µM) and an MIC [12] of 0.025 to 0.1 µg/mL (≈ 0.06 to 0.24 µM). The MIC50 [12] was 0.05 µg/mL (≈ 0.12 µM), the MIC90 [12] was 0.1 µg/mL (≈ 0.24 µM) and the death of mice [13] was “no death of mice was observed”. For the same molecule, the toxicity [14] was “low toxicity”.
With `CN1CCN(c2c(F)cc3c(=O)c(C(=O)O)c4scc5n4c3c2N(C)C5)CC1` [Compound (A), 9,1-(Methylimino)methano-7-fluoro-8-(4-methyl-1-piperazinyl)-5-oxo-5H-thiazolo[3,2-a]quinoline-4-carboxylic acid] the MIC ([1]; Staphylococcus aureus FDA 209P JC-1, Gram +) was 0.05 µg/mL (≈ 0.124 µM), the MIC ([2]; IID803, Staphylococcus aureus IID 803, Gram +, read-out: Minimum inhibitory concentration (MIC)) was 0.05 µg/mL (≈ 0.124 µM) and the MIC [3] was 0.05 µg/mL (≈ 0.124 µM). The MIC [4] was 0.1 µg/mL (≈ 0.248 µM), the MIC [5] was 0.39 µg/mL (≈ 0.969 µM) and the MIC [6] was 6 ng/mL (≈ 0.0149 µM). The MIC (Shigella sonnei EW-33) was 0.025 µg/mL (≈ 0.0621 µM), the MIC [7] was 0.2 µg/mL (≈ 0.497 µM) and the MIC [8] was 0.39 µg/mL (≈ 0.969 µM). It also gave an MIC [9] of 0.2 µg/mL (≈ 0.497 µM), an MIC (Proteus vulgaris OX-19) of 0.0125 µg/mL (≈ 0.0311 µM) and an MIC [10] of 0.2 µg/mL (≈ 0.497 µM). For the same molecule, the MIC (Enterobacter cloacae 963) was 0.05 µg/mL (≈ 0.124 µM), the MIC [11] was 0.2 µg/mL (≈ 0.497 µM) and the MIC [12] was 0.025 to 0.1 µg/mL (≈ 0.0621 to 0.248 µM). For the same molecule, the MIC50 [12] was 0.05 µg/mL (≈ 0.124 µM), the MIC90 [12] was 0.1 µg/mL (≈ 0.248 µM) and the death of mice [13] was “no death of mice was observed”. The toxicity [14] was “low toxicity”.
